Assay [1] can be described thus: Antioxidant activity assessed as DPPH radical scavenging activity incubated for 1.5 hrs under dark condition by spectrometric method. In kind it is functional. A general note: Loss of DPPH colour is used to gauge radical scavenging.
Assay [2] in a line: Antioxidant activity assessed as trolox equivalents of AAPH radical scavenging activity at 50 uM preincubated for 10 mins followed by AAPH addition and measured every min for 30 mins by ORAC-FL assay. Type of assay: functional.
A short description of assay [3]: Mixed-type inhibition of yeast alpha-glucosidase assessed as enzyme-substrate-inhibitor dissociation constant using varying levels of pNP-alpha-G as substrate incubated for 30 mins and measured at 1 min interval for 30 mins by Lineweaver-burk plot analysis. Also on record: species or system Saccharomyces cerevisiae.
The nature of assay [4]: Inhibition of yeast alpha-glucosidase using pNP-alpha-G as substrate measured after 30 mins. The arrangement: species or system Saccharomyces cerevisiae.
Assay [5] can be described thus: Mixed-type inhibition of yeast alpha-glucosidase assessed as […] dissociation constant using varying levels of pNP-alpha-G as substrate incubated for 30 mins and measured at 1 min interval for 30 mins by Lineweaver-burk plot analysis. The arrangement: species or system Saccharomyces cerevisiae.

Structures are written as SMILES.

For orientation: IC50 means the concentration that gives 50% inhibition. As usually defined, the Ki is a dissociation constant, usually derived from enzyme kinetics or from competition with a known ligand. With `CN1CCN(CCNC(=O)[C@@H](Cc2ccc(O)c(O)c2)OC(=O)/C=C/c2ccc(O)c(O)c2)CC1`, the IC50 in assay [1] is 9.7 µM; in assay [4] it was 35.2 µM. In assay [2], the Activity amounted to 2.77 µMequiv/µM. Also, the Ki in assay [3] is 34.8 µM; in assay [5] it was 22.8 µM.

For `O=C(/C=C/c1ccc(O)c(O)c1)O[C@H](Cc1ccc(O)c(O)c1)C(=O)NCc1ccccc1`, the IC50 was 8.2 µM in assay [1] and 111 µM in assay [4]. Also, the Activity in assay [2] came out at 2.79 µMequiv/µM.

Take `O=C(/C=C/c1ccc(O)c(O)c1)O[C@H](Cc1ccc(O)c(O)c1)C(=O)NCCN1CCCCC1`: the IC50 was 10.1 µM in assay [1] and 53.3 µM in assay [4]. In addition, the Activity in assay [2] amounted to 2.84 µMequiv/µM.

Regarding `CCN(CC)CCCNC(=O)[C@@H](Cc1ccc(O)c(O)c1)OC(=O)/C=C/c1ccc(O)c(O)c1`, the 50% inhibitory concentration (IC50) was found to be 8.9 µM in assay [1] and 42.3 µM in assay [4]. Moreover, the Activity in assay [2] was determined as 2.81 µMequiv/µM.

On to `O=C(/C=C/c1ccc(O)c(O)c1)O[C@H](Cc1ccc(O)c(O)c1)C(=O)O` [ROSMARINIC ACID], for which the IC50 in assay [1] was 11 µM; in assay [4], 134 µM. Moreover, the Activity in assay [2] was found to be 2.1 µMequiv/µM.

As to `O=C(/C=C/c1ccc(O)c(O)c1)O[C@H](Cc1ccc(O)c(O)c1)C(=O)NCCc1ccccc1`, the IC50 in assay [1] came to 10.4 µM; in assay [4] it was 87.7 µM. The Activity in assay [2] came to 3.07 µMequiv/µM.

Turning to `CCCCNC(=O)[C@@H](Cc1ccc(O)c(O)c1)OC(=O)/C=C/c1ccc(O)c(O)c1`, the results for the half-inhibitory concentration (IC50) in assay [1] and in assay [4] were 8.3 µM and 106 µM, respectively. Further, in assay [2], the Activity was found to be 2.72 µMequiv/µM.

Consider `CC(C)CNC(=O)[C@@H](Cc1ccc(O)c(O)c1)OC(=O)/C=C/c1ccc(O)c(O)c1`, for which the IC50 in assay [1] amounted to 11.9 µM; in assay [4], 108 µM. Also, the Activity in assay [2] turned out to be 2.15 µMequiv/µM.

As to `Cc1ccc(CNC(=O)[C@@H](Cc2ccc(O)c(O)c2)OC(=O)/C=C/c2ccc(O)c(O)c2)cc1`, the values for the IC50 in assay [1] and in assay [4] were 10.1 µM and 109 µM, respectively. In addition, in assay [2], the Activity amounted to 2.62 µMequiv/µM.

As for `CN(C)CCCNC(=O)[C@@H](Cc1ccc(O)c(O)c1)OC(=O)/C=C/c1ccc(O)c(O)c1`, the 50% inhibitory concentration (IC50) came to 9.3 µM in assay [1] and 65.5 µM in assay [4]. The Activity in assay [2] was 2.64 µMequiv/µM.

For `O=c1c(O)c(-c2ccc(O)c(O)c2)oc2cc(O)cc(O)c12` [QUERCETIN], the IC50 in assay [1] was in the range of 15.6 to 16.8 µM. Besides, in assay [2], the Activity is 2.11 to 2.19 µMequiv/µM.

As to `O=C(/C=C/c1ccc(O)c(O)c1)O[C@H](Cc1ccc(O)c(O)c1)C(=O)NCCc1ccc(O)cc1`, the IC50 in assay [1] came to 7.1 µM; in assay [4], 74.9 µM. In assay [2], the Activity is 3.28 µMequiv/µM.

Regarding `C[C@H]1O[C@H](O[C@H]2[C@H](O)[C@@H](O)[C@@H](O[C@H]3[C@H](O)[C@@H](O)C(O)O[C@@H]3CO)O[C@@H]2CO)[C@H](O)[C@@H](O)[C@@H]1N[C@H]1C=C(CO)[C@@H](O)[C@H](O)[C@H]1O` (stereo partly drawn) [ACARBOSE], the IC50 in assay [4] was 269 to 285 µM.

For the origin of these results see ChEMBL document CHEMBL4422690, “Synthesis of Rosmarinic Acid Amides as Antioxidative and Hypoglycemic Agents” (J Nat Prod, 2019).
